Data as given in patent US20170050957A1, “4-AMINO-6-(HETEROCYCLIC)PICOLINATES AND 6-AMINO-2-(HETEROCYCLIC)PYRIMIDINE-4-CARBOXYLATES AND THEIR USE AS HERBICIDES” (Dow AgroSciences LLC, priority 2013, published 2017).
Where two headings read alike, the source gives them in different places.

What was measured:
[1] = tested on: Key Broadleaf Weed and Crop Species; experiment: Post-emergent Test II herbicidal activity (Table 15); assay type: in vivo; settings: post-emergence, 336 h, 14 d; for pest or weed control at 35 g/ha: 35 g ai/ha; for pest or weed control at 70 g/ha: 70 g ai/ha; for pest or weed control at 140 g/ha: 140 g ai/ha
In short: (§1)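 Post-emergence spray; seedlings 7-21 d old, 1st-2nd true leaf; 187 L/ha; serial rates 1×-1/16×; solvent blank controls; subirrigated; visual % injury at 14 d.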

[2] = tested on: Key Grass and Sedge Weeds as well as Grass Crops; experiment: Post-emergent Test II herbicidal activity (Table 16); assay type: in vivo; settings: post-emergence, 336 h, 14 days after application; for pest or weed control at 35 g/ha: 35 g ai/ha; for pest or weed control at 70 g/ha: 70 g ai/ha; for pest or weed control at 140 g/ha: 140 g ai/ha
In short: as §1

[3] = Abutilon theophrasti, velvetleaf (Abutilon theophrasti), read-out: Visual Growth Reduction (%) 14 Days After Application, ABUTH
[4] = Amaranthus retroflexus, redroot pigweed (Amaranthus retroflexus), read-out: Visual Growth Reduction (%) 14 Days After Application, AMARE
[5] = Brassica napus, oilseed rape, canola (Brassica napus), read-out: Visual Growth Reduction (%) 14 Days After Application, BRSNN
[6] = Chenopodium album, lambsquarters (Chenopodium album), read-out: Visual Growth Reduction (%) 14 Days After Application, CHEAL
[7] = Euphorbia heterophylla, wild poinsettia (Euphorbia heterophylla), read-out: Visual Growth Reduction (%) 14 Days After Application, EPHHL
[8] = Helianthus annuus, sunflower (Helianthus annuus), read-out: Visual Growth Reduction (%) 14 Days After Application, HELAN
[9] = Cyperus esculentus, yellow nutsedge (Cyperus esculentus), read-out: Visual Growth Reduction (%) 14 Days After Application CYPES
[10] = Echinochloa crus-galli, barnyardgrass (Echinochloa crus-galli), read-out: Visual Growth Reduction (%) 14 Days After Application ECHCG
[11] = Oryza sativa, rice (Oryza sativa), read-out: Visual Growth Reduction (%) 14 Days After Application ORYSA
[12] = Setaria faberi, giant foxtail (Setaria faberi), read-out: Visual Growth Reduction (%) 14 Days After Application SETFA
[13] = Triticum aestivum, wheat, spring (Triticum aestivum), read-out: Visual Growth Reduction (%) 14 Days After Application TRZAS
[14] = Zea mays, maize, corn (Zea mays), read-out: Visual Growth Reduction (%) 14 Days After Application ZEAMX

Nc1c(F)c(-c2ccc3cn[nH]c3c2)nc(C(=O)O)c1Cl [Compound 4.06]
45 to 59%: pest or weed control at 70 g/ha [1, 6] | pest or weed control at 35 g/ha [1, 7] | pest or weed control at 35 g/ha [1, 8] | pest or weed control at 70 g/ha [2, 10] | pest or weed control at 140 g/ha [2, 12]
> 300 °C: melting point
85 to 94%: pest or weed control at 140 g/ha [1, 5] | pest or weed control at 140 g/ha [1, 7]
0 to 29%: pest or weed control at 35 g/ha [1, 3] | pest or weed control at 70 g/ha [1, 3] | pest or weed control at 140 g/ha [1, 3] | pest or weed control at 35 g/ha [1, 6] | pest or weed control at 35 g/ha [2, 9] | pest or weed control at 70 g/ha [2, 9] | pest or weed control at 140 g/ha [2, 9] | pest or weed control at 35 g/ha [2, 10] | pest or weed control at 35 g/ha [2, 11] | pest or weed control at 70 g/ha [2, 11] | pest or weed control at 140 g/ha [2, 11] | pest or weed control at 35 g/ha [2, 12] | pest or weed control at 70 g/ha [2, 12] | pest or weed control at 35 g/ha [2, 13] | pest or weed control at 70 g/ha [2, 13] | pest or weed control at 140 g/ha [2, 13] | pest or weed control at 35 g/ha [2, 14] | pest or weed control at 70 g/ha [2, 14] | pest or weed control at 140 g/ha [2, 14]
75 to 84%: pest or weed control at 35 g/ha [1, 4] | pest or weed control at 70 g/ha [1, 5] | pest or weed control at 140 g/ha [1, 8] | pest or weed control at 140 g/ha [2, 10]
95 to 100%: pest or weed control at 70 g/ha [1, 4] | pest or weed control at 140 g/ha [1, 4] | pest or weed control at 140 g/ha [1, 6]
60 to 74%: pest or weed control at 35 g/ha [1, 5] | pest or weed control at 70 g/ha [1, 7] | pest or weed control at 70 g/ha [1, 8]
